The values below come from US20250177375A1, “AZAPHILONE COMPOUND AND USE THEREOF IN PREPARATION OF ANTI-TUMOR DRUGS” (OCEAN UNIVERSITY OF CHINA, priority 2022, published 2025).

Entries after “also recorded” stand apart in the source; their conditions may differ. Where only a bound is given, the exact number is not on record here.

Experiment [1] concerns NK92 cells. Briefly: Killing function of NK92 cells against tumor cells after compound treatment (LDH assay, initial screening). Type of experiment: cell-based, Human. As to conditions: for cytotoxicity at 0.1 µM: Homo sapiens, NK92 treated at 100 nM for 72 h, effector-to-target ratio 5:1, 5 h co-culture, LDH release, read-out: tumor killing rate by NK activation. Here is the method:
(§1) Seed the NK92 cells obtained from 1.3 into a 24-well cell culture plate (referred to as a 24-well plate) at a concentration of 3×10^5 cells/well, with 4 wells designated as blank or drug-treated. For the drug-treated wells, set the initial screening concentration to 100 nM. Add 900 μL of cell suspension and 100 μL of drug to each well. For the blank wells, add 100 μL of double-distilled water. Incubate the 24-well plate in a 37° C., 5% CO2 incubator for 72 h. Replace the fresh culture medium and add drugs every 24 h during the incubation.
(§2) Seed various types of tumor cells in logarithmic phase into a 96-well cell culture plate at a concentration of 5×10^3 cells/well. Set up 3 replicate wells for each concentration and include wells for target cell spontaneous release and target cell maximum release. Incubate the 96-well plate overnight in a 37° C., 5% CO2 incubator.
Centrifuge and count the NK92 cells from 2.1 in the 24-well plate cultured for 72 h. Add the cells to the overnight-cultured tumor target cells according to the effector-to-target ratio of 5:1 (excluding wells for target cell spontaneous release and maximum release). Also, set up 3 effector cell control wells. Add 200 μL of cell suspension to each well, then centrifuge at 300 g, 25° C. for 5 min to allow sufficient contact between effector cells and target cells. Continue to place the 96 well plate in a 37° C., 5% CO2 incubator and co-cultivate the NK92 and target cells for 5 h.
Lactate dehydrogenase (LDH) assay kit (BioGend Biotech Co., Ltd.) is used to detect the killing effect of effector cells on target cells. Add LDH release reagent to the wells with target cell maximum release and incubate for 1 h. After 1 h, centrifuge at 500 g, 25° C. for 5 min. Transfer 120 μL of supernatant from each well to a new 96-well plate, add the prepared LDH detection solution (60 μL/well: 20 μL lactate solution, 20 μL 1×INT working solution, and 20 μL enzyme solution) in the dark, and mix well by pipetting. Incubate at room temperature in the dark for 20 min (wrapped in aluminum foil and shook slowly on a shaker). Measure the absorbance at 490 nm using a microplate reader and the measured absorbance value of each well should subtract the absorbance value of the background blank control well.
Cytotoxicity (%)=[(Experimental group−Effector cell control−Target cell spontaneous release)/(Target cell maximum release−Target cell spontaneous release)]×100.
(Release of lactate dehydrogenase indicates damage to the cell membrane.)

Experiment [2] has as its system cancer cell lines. Briefly: In vitro assays of cancer cell lines. Type of experiment: cell-based. As to conditions: direct activity on cancer cell lines; read-out: IC50 in all in vitro assays of cancer cell lines. From the text:
In prior research (Sun C.; Ge X.; Mudassir S.; Zhou L.; Yu G.; Che Q.; Zhang G.; Peng J.; Gu Q.; Zhu T. New glutamine-containing azaphilone alkaloids from deep-sea-derived fungus Chaetomium globosum HDN151398. Mar. Drugs 2019, 17, 253.), the inventors discovered compound 1778.

The subject of experiment [3] is NK92 cells. In words: NK cell proliferation rate using CCK-8. It is filed as cell-based, Human. As to conditions: 1-10000 nM, 72 h, FIG. 1. How it is done:
3. Determination of NK Cell Proliferation Rate Using CCK-8 after Treatment with 1778 3.1 Preparation of Compound Concentration Gradient: Dilute the azaphilone compound 1778 with double-distilled water to set up 5 concentrations, with final concentrations of 1, 10, 100, 1000, and 10000 nM in the wells.
Seed NK92 cells obtained from 1.3 into 96-well cell culture plate (referred to as a 96-well plate) at a concentration of 1×10^4 cells/well, […]. Set up 5 replicates for each compound concentration (also need to set a blank group, that is, double-distilled water replaces the compound), and seal wells with PBS. Incubate in a 37° C., 5% CO2 incubator for 72 h.
Remove the cell culture plates from 2.2 and add 10 μL of CCK-8 solution (Shanghai Yisheng Biotechnology Co., Ltd.) to each well, avoiding bubbles. After adding CCK-8 solution, incubate the 96-well cell culture plates in a 37° C., 5% CO2 incubator for 2.5 h. Measure the absorbance at 450 nm using a microplate reader to compare the proliferation level of NK92 cells.

The test system of experiment [4] is NK92 cells. Briefly: Killing ability of NK cell against tumor cells after treatment with 1778 (1, 10, 100 nM). It is filed as cell-based, Human. Here is the method:
as §1, §2
Centrifuge and count the NK92 cells from 2.1 in the 24-well plate cultured for 72 h. […]
Lactate dehydrogenase (LDH) assay kit (BioGend Biotech Co., Ltd.) is used to detect the killing effect of effector cells on target cells. […] Measure the absorbance at 490 nm using a microplate reader and the measured absorbance value of each well should subtract the absorbance value of the background blank control well. […]

Experiment [5] concerns NK92 cells. In words: NK cell activation factor release (ELISA) after co-culture with NCI-H1975. Type of experiment: cell-based, Human. Here is the method: NK cells release granzyme B and perforin to kill tumor cells upon activation, while release IFN-γ to regulate the mechanism of antitumor immunity.
5.1 Pre-treatment of NK92 Cells with Compound 1778: Seed NK92 cells into a 24-well plate and treat with drug as described in section 3.1.
Seed logarithmic phase NCI-H1975 cells into 96-well plates at a concentration of 1×10^4 cells/well. Set up 3 replicates for each concentration and control wells for target cell. Incubate the 96-well plate overnight in a 37° C., 5% CO2 incubator.
According to the effector-to-target ratio of 5:1, add NK92 cells to NCI-H1975, co-cultivate for over 6 h and centrifuge (500 g, 25° C.). Then collect supernatant (use within 24 h). Use ELISA kits (BD Biosciences, USA) to detect the release of 3 activating cytokines granzyme B (FIG. 3), perforin (FIG. 4), and IFN-γ (FIG. 5).

In experiment [6] the test system is primary NK cells isolated from the peripheral blood of healthy individuals. Briefly: Primary NK cell activation (CD107 flow cytometry), peripheral blood PBMCs from healthy donors. It is filed as cell-based, Human. As to conditions: 1, 10, 100 nM, 72 h, K562 targets 5:1, FIG. 6. How it is done:
(§3) CD107 is expressed on the surface of NK cells released by the activator. Therefore, the activation of NK cells can be reflected by detecting the content of CD107 expressed by cell membrane.
(§4) 6.1 Collect peripheral blood from normal individuals and pleural effusion from lung cancer patients using sterile anticoagulant tubes, and dilute with an equal volume of sterile PBS. Take a 50 ml centrifuge tube and absorb a certain volume of lymphocyte separation solution (Solarbio Science & Technology Co., Ltd.). Slowly add diluted peripheral blood and pleural effusion in a volume ratio of 4:3. Centrifuge at 400 g at room temperature for 30 min (Adjust the lifting and deceleration speed of the centrifuge to rise 1 or down 1). 6.2 Carefully absorb the white lymphocyte layer in the middle and place it in PBS (at least three times the volume of the absorbed cells). Overturn and blending, and wash the cells. Centrifuge at 100 g at room temperature for 10 min. Discard the supernatant, resuspend the cell pellet in 10 ml PBS, and gently mix. Wash off residual Ficoll, then centrifuge again at 100 g for 10 min. Discard the supernatant, resuspend the cell pellet in RPMI-1640 complete medium, and continue culture for 3 days with RPMI-1640 complete medium containing 10 ng/ml IL-2 to stimulate primary NK cell expansion and activation. […] The detection results were analyzed using FlowJo software.

Experiment [7] has as its system primary NK cells from the pleural fluid of lung cancer patients. Briefly: Primary NK cell activation (CD107 flow cytometry), pleural effusion from lung cancer patients. Type of experiment: cell-based, Human. The conditions noted are these: 1, 10, 100 nM, 72 h, K562 targets 5:1, FIG. 7. Here is the method: as §3, §4
Background: In flow cytometry, cells or beads pass a laser one at a time.

The subject of experiment [8] is B16F10 melanoma cells. Briefly: Melanoma lung metastasis model in C57BL/6 mice. It is filed as in vivo. The conditions noted are these: 25 mg/kg daily intraperitoneal, 14 days; B16F10 via tail vein; FIG. 8. How it is done:
To investigate whether 1778 works in vivo, we used a melanoma lung metastasis model.
Mouse B16F10 melanoma cells were intravenously injected into mice, and then 1778 was administered for efficacy evaluation. B116F10 cells are highly metastatic and lack MHC class-I expression, and it has been previously reported that the metastasis of B116F10 cells in vivo is mainly controlled by NK cells.
7.1 Inject 200,000 B116F10 cells via the tail vein into each C57BL/6J mouse. 7.2 A daily intraperitoneal injection of 1778 at a dose of 25 mg/kg (diluted with PBS solution to a final volume of 200 μL). The control group was injected intraperitoneally with an equivalent volume of PBS (with the same concentration of solvent DMSO). Weigh the mice every other day to monitor the impact on body weight. After 14 days of drug administration, euthanize the mice, collect lung tissue, and fix it in tissue fixative. Count and statistically analyze the number of melanoma colonies in the lungs.

For the compound `C/C=C(\C)C(=O)C1=C2C3=CN([C@@H](CCC(=O)O)C(=O)O)C(/C=C/[C@@H](C)CC)=CC3=C(Cl)C(=O)[C@@]2(C)OC1=O` [Compound 1778], the cytotoxicity at 0.1 µM in experiment [1] is 75.2%. Also, in experiment [1] (summary in words of the 100 nM screening table), the “activation effect on NK92 cells” value is listed as “very strong activation effect”. In addition, the IC50 (commonly the concentration that inhibits the measured activity by half) in experiment [2] was > 50 µM. In addition, in experiment [3], the “proliferation of NK92 cells” value was “weak proliferative effect; also recorded: promotes the proliferation”. Moreover, in experiment [4] (1, 10, 100 nM, FIG. 2), the “ability of NK92 cells to kill various types of tumor cells” value was “significantly enhances; also recorded: significantly promotes the killing activity”. Besides, the “concentration at which NK cells are activated” value in experiment [4] (concentrations as low as) fell in the range of 1 to 100 nM. For the same compound, the “release of granzyme B by NK-92 cells” value in experiment [5] (co-culture with NCI-H1975, 5:1, FIG. 3) was “promotes the releases; also recorded: significantly promotes the release”. In addition, the “release of perforin by NK-92 cells” value in experiment [5] (co-culture with NCI-H1975, 5:1, FIG. 4) is “promotes the releases; also recorded: significantly promotes the release”. Moreover, in experiment [5] (co-culture with NCI-H1975, 5:1, FIG. 5), the “release of IFN-γ by NK-92 cells” value was “significantly promotes the release; also recorded: promotes the releases”. Further, the “expression of CD107 (degranulation) in primary NK cells” value in experiment [6] and in experiment [7] was “significantly promotes the degranulation; also recorded: significant increase” in each case. Further, the “number of lung metastases (melanoma colonies in the lungs)” value in experiment [8] is reported as “significant inhibitory effect; also recorded: significantly reduced”. On to `C/C=C(\C)C(=O)C1=C2C3=CN([C@@H](CCC(=O)OC)C(=O)OC)C(/C=C/[C@@H](C)CC)=CC3=C(Cl)C(=O)[C@@]2(C)OC1=O` [Compound 1779], for which, in experiment [1], the cytotoxicity at 0.1 µM was 22%. `CC[C@H](C)/C=C(C)/C=C/C1=CC2=C(Cl)C(=O)[C@](C)(OC(C)=O)C(=O)C2=CN1CC(=O)O` [Compound 1996]: the cytotoxicity at 0.1 µM in experiment [1] came out at 6.12%. For `CC[C@H](C)/C=C(C)/C=C/C1=CC2=C(Cl)C(=O)[C@](C)(OC(C)=O)C(=O)C2=CN1[C@@H](Cc1ccc(O)cc1)C(=O)O` [Compound 1997], in experiment [1], the cytotoxicity at 0.1 µM was 29.5%. Take `CC[C@H](C)/C=C(C)/C=C/C1=CC2=C(Cl)C(=O)[C@](C)(OC(C)=O)C(=O)C2=CN1[C@@H](C)C(=O)O` [Compound 1998]: in experiment [1], the cytotoxicity at 0.1 µM stood at 78.4%. As to `CC[C@H](C)/C=C(C)/C=C/C1=CC2=C(Cl)C(=O)[C@](C)(OC(C)=O)C(=O)C2=CN1[C@@H](CO)C(=O)O` [Compound 1999], in experiment [1], the cytotoxicity at 0.1 µM stood at 58.3%. As to `CC[C@H](C)/C=C(C)/C=C/C1=CC2=C(Cl)C(=O)[C@](C)(OC(C)=O)C(=O)C2=CN1[C@@H](Cc1ccccc1)C(=O)O` [Compound 2000], the cytotoxicity at 0.1 µM in experiment [1] turned out to be 65.2%. In the case of `CC[C@H](C)/C=C(C)/C=C/C1=CC2=C(Cl)C(=O)[C@](C)(OC(C)=O)C(=O)C2=CN1[C@@H](CC(C)C)C(=O)O` [Compound 2001], the cytotoxicity at 0.1 µM in experiment [1] was determined as 18.7%. For the compound `CC[C@H](C)/C=C(C)/C=C/C1=CC2=C(Cl)C(=O)[C@](C)(OC(C)=O)C(=O)C2=CO1` [Compound 2307], the cytotoxicity at 0.1 µM in experiment [1] was 38.3%. Regarding `CC[C@H](C)/C=C(C)/C=C/C1=CC2=C(Cl)C(=O)[C@](C)(OC(C)=O)C(=O)C2=CN1CCO` [Compound 2308], the cytotoxicity at 0.1 µM in experiment [1] was found to be 8.11%. As to `CC[C@H](C)/C=C(C)/C=C/C1=CC2=C(Cl)C(=O)[C@](C)(OC(C)=O)C(=O)C2=CN1[C@H](C(=O)O)[C@@H](C)O` [Compound 2309], the cytotoxicity at 0.1 µM in experiment [1] was 28.3%. Turning to `C/C=C(\C)C(=O)C1=C2C3=CN([C@@H](Cc4c[nH]c5ccccc45)C(=O)O)C(/C=C/[C@@H](C)CC)=CC3=C(Cl)C(=O)[C@@]2(C)OC1=O` [Compound 2318], the cytotoxicity at 0.1 µM in experiment [1] is 35.9%. Regarding `C/C=C(\C)C(=O)C1=C2C3=CN([C@@H](Cc4c[nH]cn4)C(=O)O)C(/C=C/[C@@H](C)CC)=CC3=C(Cl)C(=O)[C@@]2(C)OC1=O` [Compound 2320], the cytotoxicity at 0.1 µM in experiment [1] is 22.2%.
